“Also recorded” adds a separate entry of the source. Marks after values point to notes of the source that are not given here.
Assays:
MMP-1 = assay: Gene expression of MMP-1 in human dermal fibroblasts treated with H2O2 (real-time PCR); type: cell-based; settings: for RQ (relative quantity of mRNA) MMP-1 / % Inhibition of the level of mRNA expression MMP-1: 3 μM; for RQ (relative quantity of mRNA) MMP-1: senescent fibroblasts stimulated with H2O2, non-treated control = 1; for % Inhibition of the level of mRNA expression MMP-1: vs H2O2 alone
Protocol: To evidence the activity of the compounds of general formula (I) against skin ageing and against inflammation, the effect of these compounds was measured on the gene expression of MMP-1, MMP-3 and IL8 in human dermal fibroblasts treated with H2O2, thereby mimicking the process of cellular senescence. The effect of these compounds of general formula (I) was also measured on the synthesis of hyaluronic acid and on hyaluronidase activity. The stimulation of the synthesis of hyaluronic acid also allows skin hydration to be improved and/or restored (Bissett D L. J. Cosmet. Dermatol. 2006 Dec. 5(4): 309-15. Glucosamine: an ingredient with skin and other benefits).
Human dermal fibroblasts (isolated from discarded operative skin) were cultured in DMEM culture medium+10% FCS. The cells were pre-treated with vitamin C and the compound to be tested for 16 h at 37° C. and then stimulated with H2O2. The cells were then replaced in DMEM with vitamin C and dioctadeca-9,12-dienoate of (9Z,9′Z,12Z,12′Z)-2-(2,2-dimethyl-1,3-dioxolan-4-yl)-5-oxo-2,5-dihydrofuran-3,4-diyl. 72 hours after ending of stress, the fibroblasts entered into senescence: the senescent fibroblasts no longer proliferate but remain metabolically active (Hayflick, J. Invest. Dermatol., 73; 8-14, 1979). The cells were then lysed with the lysis buffer of the RNeasy® kit (QIAGEN).
The extracted RNAs were converted to complementary DNA following the indications of the Quantitect Reverse Transcription kit by Qiagen. Real-time PCR analyses were conducted using an iQ cycler fluorescence thermocycler (BIO-RAD).
The level of expression of the mRNAs coding for MMP-1, MMP-3, IL8 was analyzed using the real-time PCR technique. To normalize the level of expression of the gene of interest, the analysis strategy developed by Vandesompela et al., Genome Biol. 3: RESEARCH0034 (2002) was chosen. […] In our model, the three tested reference genes were the following: β-actin (Human β-actin), GAPDH (Human glyceraldehyde-3-phosphate dehydrogenase) and YWHAZ (Tyrosine-3-monooxygenase, tryptopgan-5-monooxygenase activation protein zeta polypeptide).
The first step normalizes the Ct values obtained for the gene of interest in relation to the Ct values obtained for the reference gene, for each experimental condition.
The following was therefore calculated: ΔCt=Ctgene of interest−Ctreference gene
The second step of the calculation determines the variation in the number of copies of the gene of interest during treatment. To do so ΔΔCt is calculated: ΔΔCt=ΔCtnon-treated NHF−ΔCttreated NHF
For the non-treated control, this QR is therefore equal to 1. It is then possible to calculate an induction or inhibition factor of the gene of interest compared with this control.
Statistical analysis was performed using a test called “one-way ANOVA”. Variance analysis using the Dunnett test then allows the comparing, for each of the analyzed genes, of the ΔCt values of normal adult fibroblasts with the compounds in the presence of H2O2 in both cases. This test then gives the “p value” characterizing the significance of the results obtained for both conditions The degree of significance was established as follows: • significant for p<0.05(*) • very significant for p<0.005(**) • highly significant for p<0.001(***) • non-significant for p>0.05. […]
It is also possible to calculate percentage inhibition of the level of expression of the different mRNAs by the active ingredients to be evaluated, using the formula: […]

[1] = target: T1, hyaluronidase of bovine origin (BTH, Bovine Testis hyaluronidase) (Bos taurus, UniProt Q2YDK3); assay: Assay of hyaluronidase activity (residual HA, HA-ELISA); type: biochemical
T1 sequence (Q2YDK3 1-553): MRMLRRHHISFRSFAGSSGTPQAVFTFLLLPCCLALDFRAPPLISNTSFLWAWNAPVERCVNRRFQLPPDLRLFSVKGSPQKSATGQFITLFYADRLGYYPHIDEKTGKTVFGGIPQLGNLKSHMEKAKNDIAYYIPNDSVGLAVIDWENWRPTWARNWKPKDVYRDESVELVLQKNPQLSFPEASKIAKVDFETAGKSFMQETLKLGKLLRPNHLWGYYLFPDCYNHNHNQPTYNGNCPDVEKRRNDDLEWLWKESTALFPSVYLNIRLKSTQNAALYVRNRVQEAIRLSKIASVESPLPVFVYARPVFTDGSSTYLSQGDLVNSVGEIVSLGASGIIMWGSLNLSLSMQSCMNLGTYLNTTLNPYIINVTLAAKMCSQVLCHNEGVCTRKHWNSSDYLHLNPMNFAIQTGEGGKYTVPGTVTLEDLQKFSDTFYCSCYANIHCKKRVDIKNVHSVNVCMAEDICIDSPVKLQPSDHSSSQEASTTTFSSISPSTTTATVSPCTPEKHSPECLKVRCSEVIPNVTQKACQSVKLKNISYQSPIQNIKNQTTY
Protocol: Hyaluronidase activity is measured by the assay of residual hyaluronic acid (HA). The substrate is fixed to a carrier then placed in the presence of an enzyme and a quantity of compound to be tested. The residual HA i.e. the non-hydrolyzed HA is assayed using a HA-Elisa detection system: Hyaluronan enzyme-linked immunosorbent assay (Echelon Biosciences®).
0.5 units of hyaluronidase of bovine origin (BTH, Bovine Testis hyaluronidase) were pre-incubated at 37° C. with the compound to be tested. This mixture was deposited on the HA fixed to the surface of a microplate well. The enzymatic reaction took place at pH 7.2n at 37° C. Washing was followed by a recognition step of residual HA by hyaluronectin (NH). The quantity of bonded NH was measured by ELISA using an anti-NH antibody conjugated with alkaline phosphatase. The p-nitrophenyl phosphate disodium salt (pnNpp) substrate of the phosphatase allows spectrometric detection at 405 nm. (Delpech B et al., Analytical Biochemistry 149, 555(565 (1985); Robert Stern et al. Analytical Biochemistry 251, 263-269 (1997)). OD intensity was correlated with the quantity of residual HA. The quantity of residual HA is directly linked to enzymatic activity. In the presence of an inhibitor, the larger the quantity of residual HA the more the sample is inhibiting. A percentage inhibition of hyaluronidase will be expressed.
Therefore the net enzymatic activities were calculated which represent the difference in mean gross activity without enzyme and the gross activity of the enzyme with or without the compound to be tested.
The percentage enzymatic inhibition related to the compound to be tested was calculated as follows: % inhibition=(Maximum net enzymatic activity)−Net enzymatic activity in the presence of the compound to be tested)/Maximum net enzymatic activity.
where the maximum net enzymatic activity represents the mean net enzymatic activity of 0.5 U.

[2] = 0.5 U BTH, read-out: Enzymatic inhibition (mean as a percentage)

inhibition at 100 µM [1, 2] | inhibition at 500 µM [1, 2] | inhibition at 5 µM ([1]; 5 μM, 0.5 U BTH, read-out: Enzymatic inhibition (mean as a percentage)) | inhibition at 10 µM ([1]; 10 μM, 0.5 U BTH, read-out: Enzymatic inhibition (mean as a percentage)) | inhibition at 20 µM ([1]; 20 μM, 0.5 U BTH, read-out: Enzymatic inhibition (mean as a percentage)) | inhibition at 25 µM ([1]; 25 μM, 0.5 U BTH, read-out: Enzymatic inhibition (mean as a percentage)) | inhibition at 30 µM ([1]; 30 μM, 0.5 U BTH, read-out: Enzymatic inhibition (mean as a percentage)) | inhibition at 40 µM ([1]; 40 μM, 0.5 U BTH, read-out: Enzymatic inhibition (mean as a percentage)) | inhibition at 50 µM ([1]; 50 μM, 0.5 U BTH, read-out: Enzymatic inhibition (mean as a percentage)) | inhibition at 250 µM ([1]; 250 μM, 0.5 U BTH, read-out: Enzymatic inhibition (mean as a percentage)) | IC50 ([1]; in the region of) | Compound | RQ (relative quantity of mRNA) MMP-1 (MMP-1) | % Inhibition of the level of mRNA expression MMP-1 (MMP-1) | Effect on hyaluronidase [1] | Inhibition of MMP1 expression compared with ascorbic acid (MMP-1)
1% | 4% |  |  |  |  |  |  |  |  |  | O=C1O[C@H]([C@@H](O)CO)C(O)=C1O [Ascorbic acid, ascorbic acid] | 3.2 | 18% | no effect | 
113% | 122% | 14% | 21% | 44% | 46% | 66% | 86% | 76% | 119% | 25 to 30 µM | CCCCC/C=C\C/C=C\CCCCCCCC(=O)OC1=C(OC(=O)CCCCCCC/C=C\C/C=C\CCCCC)C(C2COC(C)(C)O2)OC1=O (centres unmarked) [Molecule 1, diactodeca-9,12-dienoate of (9Z,9′Z,12Z,12′Z)-2-(2,2-dimethyl-1,3-dioxolan-4-yl)-5-oxo-2,5-dihydrofuran-3,4-diyl] | 0.9 | 105*** % | strongly inhibit hyaluronidase; also recorded: equivalent to or more active than ascorbyl palmitate | more substantially inhibits the expression of MMP1, MMP3 and IL-8 than ascorbic acid

Reference: patent publication US8722729B2, “Unsaturated fatty acid monoesters and diesters on ascorbic acid and cosmetic uses thereof” (Pierre Fabre Dermo-Cosmetique, priority 2009, dated 2014)
